Here are results for 22 compounds from patent publication US8686177B2, “LPA receptor agonists and antagonists” (RxBio, Inc., priority 2008, dated 2014).

For one test, the system named is LPA receptors (LPA1/2/3). In words: LPA receptor agonist/antagonist activity (Table 4). The class given is cell-based. The procedure: Compounds were tested for their ability to induce or inhibit LPA-induced calcium transients in RH7777 rat hepatoma cells stably expressing LPA1, LPA2, and LPA3 receptors and in PC-3 that express LPA1-3 endogenously, using a FlexStation II automated fluorometer (Molecular Devices, Sunnyvale, Calif.).
RH7777 cells stably expressing either LPA1, LPA2 or LPA3 or PC-3 cells were plated on poly-D lysine-coated black wall clear bottom 96-well plates (Becton Dickinson, San Jose, Calif.) with a density of 50000 cells/well, and cultured overnight. The culture medium (DMEM containing 10% FBS) was then replaced with modified Krebs solution (120 mM NaCl, 5 mM KCl, 0.62 mM MgSO4, 1.8 mM CaCl2, 10 mM HEPES, 6 mM glucose, pH 7.4) and the cells were serum starved for 6-8 hours (12 h for PC-3 cells). Cells were loaded with Fura-2 AM for 35 minutes in modified Krebs medium. The Fura-2 was removed before loading the plate in the FlexStation instrument by replacing the medium once again with 100 μl modified Krebs medium/well. Plates were incubated for 4 minutes in the instrument to allow for warming to 37° C. Changes in intracellular Ca^2+ concentration were monitored by measuring the ratio of emitted light intensity at 520 nm in response to excitation by 340 nm and 380 nm wavelength lights, respectively. Each well was monitored for 80-120 seconds. […] Time courses were recorded using the SoftMax Pro software (Molecular Devices, Sunnyvale, Calif.). Ca^+ transients were quantified automatically by calculating the difference between maximum and baseline ratio values for each well.

The target of another test is T1, LPA3 receptor (Homo sapiens, UniProt Q9UBY5).
T1 construct: expressed in transfected cells
T1 sequence (Q9UBY5 1-353): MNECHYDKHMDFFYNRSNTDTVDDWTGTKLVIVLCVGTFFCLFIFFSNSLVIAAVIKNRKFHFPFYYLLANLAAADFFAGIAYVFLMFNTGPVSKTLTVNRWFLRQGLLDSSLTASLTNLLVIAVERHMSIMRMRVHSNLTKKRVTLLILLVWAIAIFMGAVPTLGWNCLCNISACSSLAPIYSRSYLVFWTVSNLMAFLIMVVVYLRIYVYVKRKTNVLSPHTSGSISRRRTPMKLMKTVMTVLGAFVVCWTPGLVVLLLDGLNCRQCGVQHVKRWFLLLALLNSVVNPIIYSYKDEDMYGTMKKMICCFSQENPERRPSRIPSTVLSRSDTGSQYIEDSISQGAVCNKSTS
In words: LPA-induced Ca2+ transients in RH7777 cells stably expressing LPA3 (agonism/antagonism). Conditions: RH7777 cells expressing LPA3, compared to LPA 18:1. The test is classed as cell-based.

Test [1] concerns small intestine crypts of irradiated mice. In words: Crypt survival in whole-body gamma-irradiated mice (Example 9). The test is classed as in vivo. How it is done:
ICR strain male mice (Harlan Laboratories, body weight 30-33 g) on a 12 h light/dark cycle and otherwise maintained on a standard laboratory chow ad libitum were starved for 16 h prior to treatment. WBI was done with a 12 Gy or 15 Gy dose using Cs^137 source at a dose rate of 1.9 Gy per minute. Groups of four mice received either 250 μl of 1 mM LPA complexed with 100 μM BSA dissolved in Hanks basal salt solution or the BSA vehicle alone 2 h prior to irradiation.
For detection of the apoptotic bodies, mice were euthanized with carbon dioxide inhalation 4 h after irradiation and the small intestine was dissected and fixed in neutral phosphate buffered isotonic 10% formalin. Four ˜3- to 4-mm long segments from the small intestine were embedded in paraffin, 5 μM thick sections were cut and stained with hematoxilin and eosin. The number of surviving crypts was counted 3.5 days after irradiation.

The next test deals with T2, LPA2 receptor (Homo sapiens, UniProt Q9HBW0).
T2 construct: expressed in transfected cells
T2 sequence (Q9HBW0 whole entry): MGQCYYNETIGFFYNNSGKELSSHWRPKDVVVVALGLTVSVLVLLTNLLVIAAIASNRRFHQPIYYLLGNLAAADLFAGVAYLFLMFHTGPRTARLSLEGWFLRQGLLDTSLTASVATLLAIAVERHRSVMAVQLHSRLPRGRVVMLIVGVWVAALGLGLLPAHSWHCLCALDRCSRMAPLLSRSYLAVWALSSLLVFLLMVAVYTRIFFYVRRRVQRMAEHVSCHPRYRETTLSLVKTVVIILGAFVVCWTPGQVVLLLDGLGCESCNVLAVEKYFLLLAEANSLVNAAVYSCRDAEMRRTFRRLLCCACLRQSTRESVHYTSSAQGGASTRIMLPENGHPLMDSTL
In words: LPA-induced Ca2+ transients in RH7777 cells stably expressing LPA2 (agonism/antagonism). The class given is cell-based. The conditions noted are these: RH7777 cells expressing LPA2, compared to LPA 18:1.

The target in a further test is T3, LPA1 receptor (Homo sapiens, UniProt Q92633).
T3 construct: expressed in transfected cells
T3 sequence (Q92633 whole entry): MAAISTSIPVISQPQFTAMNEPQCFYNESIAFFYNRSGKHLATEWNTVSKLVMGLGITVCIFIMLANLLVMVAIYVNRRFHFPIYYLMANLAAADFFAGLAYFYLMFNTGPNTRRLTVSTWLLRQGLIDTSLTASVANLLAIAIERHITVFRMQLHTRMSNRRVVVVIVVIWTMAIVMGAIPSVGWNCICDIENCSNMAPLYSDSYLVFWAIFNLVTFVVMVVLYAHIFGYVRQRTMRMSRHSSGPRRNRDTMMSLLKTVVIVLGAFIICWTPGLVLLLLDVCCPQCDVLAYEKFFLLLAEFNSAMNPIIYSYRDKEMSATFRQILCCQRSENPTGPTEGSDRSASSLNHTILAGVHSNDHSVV
In words: LPA-induced Ca2+ transients in RH7777 cells stably expressing LPA1 (agonism/antagonism). The test is classed as cell-based. The conditions noted are these: RH7777 cells expressing LPA1, compared to LPA 18:1.

For test [2], the system named is IEC-6 cells. In words: Camptothecin-induced DNA fragmentation in IEC-6 cells (Example 8, Cell Death Detection ELISA). The class given is cell-based. The conditions noted are these: 20 μM camptothecin; LPA and FAP 12 at 10 μM. How it is done:
IEC-6 cells were grown in DMEM medium supplemented with 5% fetal bovine serum, insulin (10 μg/ml), gentamycin sulfate (50 μg/ml), and incubated at 37° C. in a humidified 90% air-10% CO2 atmosphere. Medium was changed every other day. Sub-confluent cells were washed twice and replaced by DMEM without serum the night before experiments.
Damage and IEC-6 cell apoptosis was induced via either γ-irradiation or chemotherapy. 20 Gy single dose of [^137Cs] source γ-irradiation was used in all experiments. […] In some experiments, LPA was added at different times before or after irradiation. Treatment with 20 μM camptothecin of IEC-6 cells induces DNA fragmentation as measured by the ELISA assay at 16 h after treatment. DNA fragmentation was quantified using the Cell Death Detection ELISA kit from Boehringer (Indianapolis, Ind.) according to the instructions of the manufacturer. Samples were run in triplicate. A duplicate of the sample was used to quantify protein concentration using the BCA kit from Pierce (Rockford, Ill.). DNA fragmentation was expressed as absorbance units per μg protein per minute.
On the technique in general: An ELISA detects its analyte on a solid surface through an enzyme-linked reagent.

In test [3] the test system is IEC-6 cells. In words: DNA fragmentation assay in camptothecin-induced IEC-6 cells (Example 11, FIG. 7). The test is classed as cell-based. Conditions: 20 μM camptothecin, 15 min pre-treatment, 6 hours. The procedure: IEC-6 cells were obtained from the American Type Culture Collection (Manassas, Va.) and were grown in Dulbecco's modified Eagle medium (DMEM) supplemented with 10% fetal bovine serum, 10 μg/ml insulin, and 50 μg/ml gentamicin sulfate at 37° C. in a humidified 90% air/10% CO2 atmosphere. The medium was changed every other day. Cells between passage 15 and 21 were used for the experiments. Newly synthesized RxBio analogs at doses ranging from […] were used to pre-treat IEC-6 cells for 15 min. Apoptosis was induced by 20 μM camptothecin following the pre-treatment. DNA fragmentation was measured 6 hours after camptothecin treatment by enzyme-linked immunosorbent assay using the cell death detection ELISA^PLUS kit from Roche (Indianapolis, Ind.) following the instruction of the manufacturer. Briefly, cells were harvested and lysed in DNA lysis buffer for 30 min. Sample lysates were collected after centrifugation at 200 rpm for 10 min. 10 μl of supernatant was loaded individually in a 96-well streptavidin-coated plate and incubated with immunoreagents (anti-histone-biotin plus anti-DNA peroxidase conjugated antibody) on a shaker for 2 h. […] DNA absorbance was read at 405 nm in a microplate reader (PerkinElmer, Shelton, Conn.). Aliquots of samples were used to quantify protein concentration using the bicinchoninic acid kit (Pierce, Rockford, Ill.).

Method for LPA1 receptor: (§1) RH7777 cells stably expressing either LPA1, LPA2 or LPA3 or PC-3 cells were plated on poly-D lysine-coated black wall clear bottom 96-well plates (Becton Dickinson, San Jose, Calif.) with a density of 50000 cells/well, and cultured overnight. The culture medium (DMEM containing 10% FBS) was then replaced with modified Krebs solution (120 mM NaCl, 5 mM KCl, 0.62 mM MgSO4, 1.8 mM CaCl2, 10 mM HEPES, 6 mM glucose, pH 7.4) and the cells were serum starved for 6-8 hours (12 h for PC-3 cells). […] Changes in intracellular Ca^2+ concentration were monitored by measuring the ratio of emitted light intensity at 520 nm in response to excitation by 340 nm and 380 nm wavelength lights, respectively. Each well was monitored for 80-120 seconds. […] Time courses were recorded using the SoftMax Pro software (Molecular Devices, Sunnyvale, Calif.). Ca^+ transients were quantified automatically by calculating the difference between maximum and baseline ratio values for each well.
(§2) These new analogs were evaluated as agonists and antagonists with respect to LPA1-3. […]
Method for LPA2 receptor: as §1, §2
Method for LPA3 receptor: as §1, §2

In the case of `CCCCCCCCCCCCCCCCCCC(COP(O)(O)=S)COP(O)(O)=S.N` [RxBVG-I-64, Ammonium thiophosphoryl-O-(2-thiophosphonooxymethyl-eicosyl) ester], the Activity result in the test with LPA receptors (LPA1/2/3) is reported as “LPA3 agonist”.

For `BP(=O)(O)OCCCCCCCCCCCCCC` [RxBVG-II-9, Potassium boranophosphoryl monotetradecyl ester], the Activity entry in the test with LPA receptors (LPA1/2/3) was “LPA2 agonist”.

With “Ammonium thiophosphoryl-O-eicos-11Z-enyl ester [RxBVG-I-77]”, in the test with LPA receptors (LPA1/2/3), the Activity result was “LPA2 agonist”.

Turning to `CCCC/C=C\CCCCCCCCCOP(O)(O)=S.N` [RxBVG-I-82, Ammonium thiophosphoryl-O-pentadec-10Z-enyl ester], the Activity entry with LPA receptors (LPA1/2/3) is “Pan antago- nist (LPA1/2/3)”.

Take `CCCCCCC1CC1CCCCCCCCOP(O)(O)=S.N` (centres unmarked) [RxBVG-II-22, Ammonium thiophosphoryl-O-[8-(2-hexyl-cyclopropyl)-octyl]ester]: the Activity entry in the test on LPA receptors (LPA1/2/3) is listed as “LPA2 agonist”.

On to `CCCCCC1CC1CC1CC1CCCCCCCCOP([O-])(O)=S.[K+]` (centres unmarked) [RxBVG-II-35, Potassium thiophosphoryl-O-{8-[2-(2-pentyl-cyclopropylmethyl)-cyclopropyl]octyl}ester], for which the Activity result in the test with LPA receptors (LPA1/2/3) is recorded as “LPA2 agonist”.

`CCCCCCCCC=CCCCCCCCCOP(O)(O)=S` [8g, Thiophosphoric acid O-octadec-9-enyl ester]: the “ligand property at LPA3 (FIG. 2C)” value on LPA3 receptor is “agonist”. The crypt survival result in test [1] (200 μM into the stomach 2 h prior irradiation, FIG. 3) was “significantly (P>0.01) enhanced crypt survival”. The “crypt survival, dose dependence” value in test [1] (FIG. 4) was “dose-dependent enhancement of crypt survival”. Further, the “crypt survival in jejunum and ileum compared with LPA” value in test [1] (γ-irradiated mice, FIG. 5) is “present in the jejunum and ileum and exceeded that of LPA”. Further, the “ligand property at LPA2 (FIG. 2B)” value on LPA2 receptor is given as “agonist”. The “ligand property at LPA1 (FIG. 2A)” value on LPA1 receptor was “agonist”. Also, the “inhibition of camptothecin-induced DNA fragmentation” value (from here on “inhibition”) in the test on IEC-6 cells [2] was “comparable to that of LPA but supersedes it at concentrations above 3 μM”.

On to `CCCCCC/C=C\CCCCCCCCOP(O)(O)=S.N` [RxBVG-I-81, Ammonium thiophosphoryl-O-hexadec-9Z-enyl ester], for which the Activity result in the test on LPA receptors (LPA1/2/3) is recorded as “Pan antago- nist (LPA1/2/3)”.

Regarding `CCCCC/C=C\C/C=C\CCCCCCCCOP(O)(O)=S` [RxBVG-I-83, Ammonium thiophosphoryl-O-octadeca-9Z,12Z-dienyl ester], the Activity result with LPA receptors (LPA1/2/3) is “LPA2 agonist”.

With `CCCCCCCC(CCCCCCC)OP(O)(O)=S` [RxBVG-I-28, Thiophosphoric acid O-(1-heptyl-octyl) ester], the Activity result with LPA receptors (LPA1/2/3) is reported as “Pan antago- nist (LPA1/2/3)”.

For the compound `CCCCCCCCC1CC1CCCCCCCCOP(O)(O)=S.N` (stereo not drawn) [RxBVG-I-93, Ammonium thiophosphoryl-O-[8-(2-octyl-cis-cyclopropyl)-octyl]ester], the “efficacy in DNA fragmentation assay” value in the test on IEC-6 cells [3] is “even more efficacy than did oleoyl thiophosphate”. The Activity entry in the test on LPA receptors (LPA1/2/3) was “LPA2 agonist”.

Consider `CCCCCCCCCCCCOP(=O)(O)O` [FAP 12], for which the “inhibition” value in the test on IEC-6 cells [2] is “inhibited”.

Take `CCCCCCCC(CCCCCCC)OP(=O)(O)O.N.N` [RxBVG-I-27, Ammonium phosphoryl-mono-(1-heptyl-octyl) ester]: the Activity result with LPA receptors (LPA1/2/3) is reported as “Pan antago- nist (LPA1/2/3)”.

As for `BP(=O)(O)OCCCCCCCC` [RxBVG-II-13, Potassium boranophosphoryl monooctyl ester], the Activity entry in the test on LPA receptors (LPA1/2/3) is listed as “LPA2 agonist”.

As for `[K+].[O-]P(O)(=S)OCCCCCCCCC1CC1` [RxBVG-II-23, Potassium thiophosphoryl-O-(8-cyclopropyl-octyl) ester], the Activity result in the test with LPA receptors (LPA1/2/3) is on record as “LPA2 agonist”.

For the compound `CCCCCCC1CC1CCCCCCCCCCOP([O-])(O)=S.[K+]` (centres unmarked) [RxBVG-II-34, Potassium thiophosphoryl-O-[10-(2-hexyl-cyclopropyl)-decyl]ester], the Activity entry in the test with LPA receptors (LPA1/2/3) is on record as “LPA2 agonist”.

On to `CCCCCCCCC1CC1CCCCCCCCCCOP([O-])(O)=S.[K+]` (centres unmarked) [RxBVG-II-36, Potassium thiophosphoryl-O-[10-(2-octyl-cyclopropyl)-decyl]ester], for which the Activity entry with LPA receptors (LPA1/2/3) was “LPA2 agonist”.

On to “Potassium boranophosphoryl monododecyl ester [RxBVG-II-11]”, for which the Activity entry with LPA receptors (LPA1/2/3) was “LPA2 agonist”.

On to `CCCCCCCCCCCCCCC(C(=O)O)C(=O)O` [RxBVG-I-8, 2-Tetradecyl-malonic acid], for which the Activity result in the test on LPA receptors (LPA1/2/3) is “LPA2 agonist”.

Consider `CCCCCCCC/C=C\CCCCCCCC(=O)OC[C@@H](O)COP(=O)(O)O` [oleoyl-LPA], for which the “inhibition” value with IEC-6 cells [2] was “inhibited”.

As for `CCCCCCCC/C=C/CCCCCCCCOP(O)(O)=S.N` [RxBVG-I-67, Ammonium thiophosphoryl-O-octadec-9E-enyl ester], in the test with LPA receptors (LPA1/2/3), the Activity result is on record as “LPA3 agonist”.

Take `BP(=O)(O)OCCCCCCCCCCCCCCCCCC` [RxBVG-II-7, Potassium boranophosphoryl monooctadecyl ester]: the Activity entry in the test on LPA receptors (LPA1/2/3) was “LPA2 agonist”.
